This assay has as its target T1, human serum albumin (HSA) (Homo sapiens, UniProt P02768).
T1 construct: gene ALB; commercial HSA from Sigma-Aldrich, full mature protein, untagged, monomeric
In words: isothermal titration calorimetry, independent binding model. Particulars: read-out: Ka (converted). A general note: ITC needs no label: the signal is the heat of the interaction.

T1 sequence (P02768 25-609): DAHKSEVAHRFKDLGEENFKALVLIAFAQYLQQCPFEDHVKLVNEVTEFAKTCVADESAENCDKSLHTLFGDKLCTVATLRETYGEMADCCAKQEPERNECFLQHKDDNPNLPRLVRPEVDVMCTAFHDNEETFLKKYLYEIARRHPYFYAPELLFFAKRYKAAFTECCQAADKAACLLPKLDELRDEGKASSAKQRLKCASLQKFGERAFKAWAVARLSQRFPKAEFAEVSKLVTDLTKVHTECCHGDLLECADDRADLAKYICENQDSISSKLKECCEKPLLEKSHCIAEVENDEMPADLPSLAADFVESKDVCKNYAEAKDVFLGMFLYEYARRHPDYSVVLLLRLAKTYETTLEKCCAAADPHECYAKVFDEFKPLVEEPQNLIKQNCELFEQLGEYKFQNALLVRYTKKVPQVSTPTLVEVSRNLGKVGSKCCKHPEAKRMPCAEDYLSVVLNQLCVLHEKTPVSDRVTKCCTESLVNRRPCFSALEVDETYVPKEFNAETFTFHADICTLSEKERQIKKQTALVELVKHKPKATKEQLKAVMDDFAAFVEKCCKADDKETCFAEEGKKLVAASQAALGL

For the compound `Cc1csc(N/N=C/c2ccc(O)c(O)c2)n1` [compound 5, (E)-2-(3,4-dihydroxybenzylidene)-1-(4-methylthiazol-2-yl)hydrazin-1-ium chloride], the Kd is 140 µM.

For the origin of these results see PMC9312188, “Antioxidant Activity Evaluation and Assessment of the Binding Affinity to HSA of a New Catechol Hydrazinyl-Thiazole Derivative” (Antioxidants, 2022).
